Test results as given in the NIST ThermoML archive (doi:10.1016/j.jct.2005.03.020).
± gives the expanded uncertainty stated by the source.

Tests used:
[1] = xn = mol fraction of the nth substance listed; conditions: 298.15 K, 101.33 kPa, Liquid
[2] = excess molar enthalpy (molar enthalpy of mixing); xn = mol fraction of the nth substance listed; conditions: 298.15 K, 101.33 kPa, Liquid

ClCCCCl [1,3-dichloropropane] + CCOC=O
[1]
Conditions | mass density [kg/m3]
x2 = 0.076 | 1161.06 ± 0.88
x2 = 0.1432 | 1145.36 ± 0.91
x2 = 0.2073 | 1130.02 ± 0.95
x2 = 0.2696 | 1114.94 ± 0.98
x2 = 0.3338 | 1099.05 ± 1
x2 = 0.394 | 1083.9 ± 1.1
x2 = 0.4558 | 1068.05 ± 1.1
x2 = 0.5152 | 1052.57 ± 1.1
x2 = 0.5731 | 1037.18 ± 1.2
x2 = 0.6297 | 1021.91 ± 1.2
x2 = 0.6862 | 1006.34 ± 1.2
x2 = 0.7413 | 990.94 ± 1.3
x2 = 0.794 | 975.98 ± 1.3
x2 = 0.8475 | 960.54 ± 1.4
x2 = 0.8994 | 945.31 ± 1.4
x2 = 0.9494 | 930.3 ± 1.4

ClCCCCCl [1,4-dichlorobutane] + CCCC(=O)OCC
Conditions | excess molar enthalpy, [2] [kcal/mol] | mass density, [1] [kg/m3]
x2 = 0.0516 | -0.00502 ± 0.000454 | 1117.97 ± 0.75
x2 = 0.1009 | – | 1103.15 ± 0.75
x2 = 0.1108 | -0.0127 ± 0.000574 | –
x2 = 0.1531 | – | 1087.78 ± 0.75
x2 = 0.172 | -0.0208 ± 0.000693 | –
x2 = 0.2042 | – | 1072.99 ± 0.75
x2 = 0.2328 | -0.0297 ± 0.000837 | –
x2 = 0.2583 | – | 1057.63 ± 0.75
x2 = 0.2891 | -0.0397 ± 0.00098 | –
x2 = 0.3128 | – | 1042.49 ± 0.75
x2 = 0.3455 | -0.0467 ± 0.0011 | –
x2 = 0.3701 | – | 1026.87 ± 0.76
x2 = 0.3976 | -0.053 ± 0.0012 | –
x2 = 0.4267 | – | 1011.74 ± 0.76
x2 = 0.4477 | -0.0578 ± 0.00127 | –
x2 = 0.4757 | -0.0598 ± 0.00129 | –
x2 = 0.5265 | -0.0616 ± 0.00131 | –
x2 = 0.5437 | – | 981.4 ± 0.8
x2 = 0.5821 | -0.0614 ± 0.00131 | –
x2 = 0.6058 | – | 965.8 ± 0.83
x2 = 0.6443 | -0.0597 ± 0.00129 | –
x2 = 0.6681 | – | 950.44 ± 0.86
x2 = 0.7111 | -0.0554 ± 0.00122 | –
x2 = 0.7293 | – | 935.66 ± 0.89
x2 = 0.7821 | -0.0468 ± 0.0011 | –
x2 = 0.8567 | -0.0343 ± 0.000908 | –
x2 = 0.8601 | – | 905.05 ± 0.95
x2 = 0.9259 | – | 890.1 ± 0.98
x2 = 0.9323 | -0.0189 ± 0.000669 | –

ClCCCCCl [1,4-dichlorobutane] + CCOC(=O)CC
[1]
Conditions | mass density [kg/m3]
x2 = 0.0587 | 1117.82 ± 0.73
x2 = 0.1153 | 1103.37 ± 0.7
x2 = 0.1718 | 1088.99 ± 0.68
x2 = 0.2299 | 1074.24 ± 0.65
x2 = 0.2859 | 1060.13 ± 0.63
x2 = 0.3447 | 1045.32 ± 0.6
x2 = 0.403 | 1030.76 ± 0.58
x2 = 0.4615 | 1016.16 ± 0.56
x2 = 0.5233 | 1000.86 ± 0.54
x2 = 0.5825 | 986.22 ± 0.54
x2 = 0.6382 | 972.47 ± 0.55
x2 = 0.698 | 957.78 ± 0.56
x2 = 0.8187 | 928.2 ± 0.59
x2 = 0.8774 | 913.87 ± 0.6
x2 = 0.9378 | 899.14 ± 0.62

ClCCCCCl [1,4-dichlorobutane] + CCOC(C)=O
Conditions | excess molar enthalpy [kcal/mol] | mass density [kg/m3]
[1], x2 = 0.0693 | – | 1118.08 ± 0.72
[1], x2 = 0.1314 | – | 1104.46 ± 0.68
[1], x2 = 0.1955 | – | 1090.4 ± 0.64
[1], x2 = 0.2579 | – | 1076.44 ± 0.6
[1], x2 = 0.3205 | – | 1062.24 ± 0.56
[1], x2 = 0.3812 | – | 1048.26 ± 0.52
[1], x2 = 0.442 | – | 1034.12 ± 0.49
[1], x2 = 0.5019 | – | 1019.95 ± 0.45
[1], x2 = 0.5602 | – | 1006.01 ± 0.42
[1], x2 = 0.6172 | – | 992.21 ± 0.4
[1], x2 = 0.6757 | – | 977.84 ± 0.4
[1], x2 = 0.7842 | – | 950.68 ± 0.42
[1], x2 = 0.8386 | – | 936.74 ± 0.43
[1], x2 = 0.8929 | – | 922.7 ± 0.45
[1], x2 = 0.9453 | – | 908.9 ± 0.47
[2], x2 = 0.0692 | -0.00201 ± 0.000406 | –
[2], x2 = 0.1414 | -0.00473 ± 0.000454 | –
[2], x2 = 0.2133 | -0.00848 ± 0.000502 | –
[2], x2 = 0.2818 | -0.0131 ± 0.000574 | –
[2], x2 = 0.347 | -0.0181 ± 0.000645 | –
[2], x2 = 0.4035 | -0.0231 ± 0.000741 | –
[2], x2 = 0.4514 | -0.0274 ± 0.000789 | –
[2], x2 = 0.4919 | -0.0309 ± 0.00086 | –
[2], x2 = 0.5264 | -0.0339 ± 0.000884 | –
[2], x2 = 0.5571 | -0.0363 ± 0.000932 | –
[2], x2 = 0.5836 | -0.0386 ± 0.00098 | –
[2], x2 = 0.6072 | -0.0403 ± 0.001 | –
[2], x2 = 0.6278 | -0.0414 ± 0.001 | –
[2], x2 = 0.6525 | -0.0423 ± 0.00103 | –
[2], x2 = 0.7106 | -0.0388 ± 0.00098 | –
[2], x2 = 0.7719 | -0.0344 ± 0.000908 | –
[2], x2 = 0.8337 | -0.0275 ± 0.000789 | –
[2], x2 = 0.8915 | -0.0193 ± 0.000669 | –
[2], x2 = 0.9475 | -0.00997 ± 0.000526 | –

ClCCCCCl [1,4-dichlorobutane] + CCOC=O
[1]
Conditions | mass density [kg/m3]
x2 = 0.0818 | 1119.67 ± 0.81
x2 = 0.1583 | 1106.59 ± 0.86
x2 = 0.2305 | 1093.6 ± 0.91
x2 = 0.2967 | 1081.3 ± 0.95
x2 = 0.3635 | 1068.33 ± 1
x2 = 0.4271 | 1055.54 ± 1.1
x2 = 0.491 | 1042.19 ± 1.1
x2 = 0.6081 | 1016.39 ± 1.2
x2 = 0.6615 | 1003.97 ± 1.2
x2 = 0.7146 | 991.26 ± 1.2
x2 = 0.7671 | 978.22 ± 1.3
x2 = 0.816 | 965.61 ± 1.3
x2 = 0.8633 | 952.97 ± 1.4
x2 = 0.91 | 940.24 ± 1.4
x2 = 0.9551 | 927.47 ± 1.4
